The text below walks through data of patent US20220054610A1, “SLOW-CYCLING CELL-RNA BASED NANOPARTICLE VACCINE TO TREAT CANCER” (University of Florida Research Foundation, Inc., priority 2018, published 2022).

The subject of one assay is hGBM SCCs and FCCs. The assay can be described thus: Cell death by flow cytometry (propidium iodide incorporation, cleaved caspase 3). Type of assay: cell-based, human. Particulars: for apoptotic cell death (cleaved caspase 3) in SCCs: unlike FCCs, 24 hours of treatment. The protocol: Propidium iodide incorporation and expression of cleaved caspase 3 were used to compare the effects of glucose restriction and/or mitochondrial function inhibition (by rotenone or metformin treatment). Briefly, cells were labeled with CellTrace dye and grown in complete medium for 5-7 days before being placed in high glucose (HG; >500 mg/dL) or physiological glucose conditions (PG; 90-110 mg/dL) and/or treated with rotenone (0.5-1 μM) or metformin (10-20 mM) for 24 hours. Media glucose concentrations were monitored daily and maintained constant throughout the experiments by adding glucose to the cell cultures as needed, which prevented the glucose supply exhaustion that might have occurred due to FCCs' higher division rate.
(§1) Propidium iodide and cleaved caspase 3 staining were quantified using flow cytometry. The effects of restricting glucose along with mitochondrial targeting using rotenone or metformin were investigated using the CyQUANT™ assay. Cells were plated at 60,000 cells per well in 96-well plates and exposed to the treatments alone or in combination (physiological glucose, 0.5 μM rotenone, and 10 mM metformin). CyQUANT™ binding dye was added to each well and incubated for 30 min at 37° C. before being quantified using Biotek™ Cytation™ 3 Cell Imaging Multi-Mode Reader.
In general terms: In flow cytometry, cells or beads pass a laser one at a time.

Another assay relates to hGBM cells. The assay can be described thus: CyQUANT assay, glucose restriction combined with mitochondrial targeting. In kind it is cell-based, human. Particulars: physiological glucose plus 0.5 μM rotenone or 10 mM metformin, 24 hours. As to the method: as §1
The next assay concerns the target T1, FABP7 (Homo sapiens, UniProt O15540).
T1 construct: endogenous in cells; host or cells: L1 patient-derived GBM cell line, slow-cycling (SCC) and fast-cycling (FCC) cells
The assay can be described thus: C16-BODIPY fatty acid uptake by flow cytometry, FABP7 inhibition. Particulars: SCCs; 200 nM FABP7 inhibitor, L1. In kind it is cell-based. The protocol:
(§2) Each cell line was labeled with CellTrace dye and grown for 5-7 days. Cells were then dissociated and treated with different BODIPY® FLC16 (Molecular probes) concentrations and incubation times described below. Fatty acids conjugated to C16-BODIPY fluorophore undergo native-like metabolism and transport. Dose response was performed with 0, 0.5, 2.5, 5, 10, 25, and 50 nM BODIPY, and the time course was done at a concentration of 5 nM for 1, 4, 5, 10, and 15 min. The cells were then washed and fixed with 4% paraformaldehyde. To determine the amount of fatty acid uptake, cells were analyzed by flow cytometry on a BD LSRII Flow Cytometer. Fatty acid transporter inhibitors SB-FI-26 (Cayman Chemicals, #14191) and BMS309403 (Millipore, #34310) were used to inhibit FABP7 (Kaczocha et al., 2014) and FABP3 (Furuhashi et al., 2007), respectively.

Assay [1] deals with GBM xenograft tumor cell invasion. The assay can be described thus: In vivo tumor cell invasion after FABP7 inhibition. Set-up: species or system NOD-SCID mice. As to conditions: in vivo inhibition of FABP7. The protocol:
Tumor invasion was measured using human-specific nestin labeling (Millipore, MAB5326). Full images of brain sections were obtained by multiple gray scale imaging acquired using Spot Advanced software (Spot Imaging Solutions), merged into full images, and inverted into black-and-white images using Photoshop CS6 (Adobe Systems). Staining threshold levels were adjusted in Image J software to distinguish tumor from background, as previously described (Siebzehnrubl F A, et al. (2013) EMBO Mol Med: 1196-1212). Invasion index was obtained by calculating the ratio of the squared-perimeter distance over the area (P2/A). Dissociated tumors are associated with higher invasion indices compared to more spherical tumors characterized by lower invasion indices. High-power images of stained tissues were taken using an IX81-DSU spinning disk confocal microscope (Olympus) fitted with a 60x water immersion objective, and all images were captured as z-stacks (0.5 μm steps). For 3D imaging, pictures were acquired using a UPLSAPO 60x water objective and Hamamatsu ORCA-AG Camera. Images were captured as z-stacks (0.5 μm steps). All image analyses and 3D surface reconstructions utilized the 3i SlideBook v4.2 Software (with Deconvolution Module). Image capture settings were standardized across samples. 3D surface reconstruction rendering cut-off values were also standardized in the 3i SlideBook software.

For assay [2], the system named is L0, L1, L2 GBM patient-derived cell line xenografts. The assay can be described thus: In vivo survival with FABP7 inhibitor and/or 2-DG, Kaplan-Meier and Cox frailty model. As to conditions: Cox frailty model, all three GBM cell lines grouped. Set-up: species or system NOD-SCID mice.
For another assay, the system named is L1 SCCs and FCCs. The assay can be described thus: CyQUANT proliferation assay, FABP7 inhibitor with high or physiological glucose. Particulars: 5 days. In kind it is cell-based, human. An excerpt: (FIG. 7A) GSEA comparing RNA sequencing results between SCCs and FCCs (n=3 biological replicates, L0-1-2) for the fatty acid metabolism gene signature. FDR, false discovery rate; NES, normalized enrichment score; Nom., nominal. (FIG. 7B) Results for qRT-PCR of genes differentially expressed between SCCs and FCCs using the RT2 Profiler PCR Array for Human Fatty Acid Metabolism. Changes in transcript levels are given as percent change relative to FCCs (n=3-8, p<0.05, one sample t-test). (FIG. 7C) FABP7 expression in brain (n=4), breast (n=336), colorectal (n=374), lung (n=117), ovarian (n=242), and pancreatic (n=20) cancer cell lines (**, p<0.005, ****, p<0.0001, one-way ANOVA). (FIG. 7D) Evaluation of the Bredel dataset indicated higher expression of FABP7 in glioblastoma (n=27) compared to non-malignant (n=4) brain tissue (**, p<0.005, t-test). […] (FIG. 7J) C16-BODIPY uptake was measured in L1 GBM line SCCs or FCCs cultured with or without 200 nM FABP7 inhibitor (FABP7i, each condition, n=3, *** p<0.0001, linear regression). […] Cell proliferation was assessed using CyQUANT assays 5 days after treatment (n=2-3, * p<0.05, one-way ANOVA with Tukey post-test). (FIG. 7L) C16-BODIPY uptake was measured in the L1 wild-type (WT) and CRISPR-FABP7 (crFABP7) cell line (each condition, n=3, * p<0.05, linear regression). […]

Assay [3] concerns GBM unsorted and SCC populations. The assay can be described thus: Tumor sphere migration assay. In kind it is cell-based, human. As to the method:
For quantification of cell migration, tumor spheres were plated onto a laminin/poly-D-lysine coated surface at low density and in the presence of growth factors, FABP7 inhibitor (SB-FI-26), or DMSO as a solvent control. Images were taken from the same spheres 2 hours and 24 hours after plating with a Leica DM IL microscope equipped with a DFC3000G camera and Leica application suite X software. The greatest distance of outgrowing cells was measured using ImageJ, and migration distance was calculated as the difference between the two time points. Only spheres with a diameter greater than 50 μm, 2 hours after plating, were used to measure migration distance.

The target of the next assay is T2, FABP3 (Homo sapiens, UniProt P05413).
T2 construct: endogenous in cells; host or cells: patient-derived GBM cells (SCCs and FCCs)
T2 sequence (P05413 whole entry): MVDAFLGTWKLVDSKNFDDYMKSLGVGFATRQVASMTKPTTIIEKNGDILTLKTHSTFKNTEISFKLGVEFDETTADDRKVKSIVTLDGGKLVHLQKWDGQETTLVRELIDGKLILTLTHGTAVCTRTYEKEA
The assay can be described thus: C16-BODIPY fatty acid uptake by flow cytometry, FABP3 inhibition. Type of assay: cell-based. Particulars: SCCs; 250 nM FABP3 inhibitor. As to the method: as §2

In assay [4] the test system is L1 SCC, FCC or total unsorted intracranial xenografts. The assay can be described thus: In vivo rotenone treatment of intracranially implanted animals, survival. Set-up: species or system NOD-SCID mice. The source says: Adult male NOD-SCID mice (7-15 weeks old) were used for in vivo tumor implants following NIH and institutional (IACUC) guidelines and regulations for animal care and handling. The mice colonies were maintained at the University of Florida's animal facility. Animals were randomized to cages following implantation. For in vivo tumor invasion assay, FACS cells were intracranially implanted as previously described (Deleyrolle L P, et al. (2011) Brain 134:1331-43; Siebzehnrubl F A, et al. (2013) Hoang-Minh et al., EMBO Mol Med: 1196-1212) and invasion assay was performed 10 weeks post implant. For in vivo TMZ treatment, animals were implanted with 100,000 cells immediately after cell sorting. Tumor-bearing animals were intraperitoneally treated with 5 injections of 20 mg/kg TMZ over 5 days at 3 (hGBM L0) or 4 (hGBM L2) weeks post implantation. For in vivo restricted glucose and mitochondria targeting experiments, animals were xenografted with SCCs or FCCs and subjected to either a high carbohydrate control diet or a custom supplemented high fat/low carbohydrate dietary regimen (sHFLC) (Martuscello R T, et al. (2016) Clin Cancer Res. 22:2482-95). Each group received vehicle or rotenone treatment (0.5 mg/kg i.p, once a week for 6 weeks).

T1 sequence (O15540 whole entry): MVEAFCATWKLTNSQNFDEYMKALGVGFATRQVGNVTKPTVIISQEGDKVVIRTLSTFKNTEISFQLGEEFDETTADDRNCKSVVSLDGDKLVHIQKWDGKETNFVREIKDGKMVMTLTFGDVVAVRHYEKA

As for `CN(C)C(=N)N=C(N)N` [metformin], in the assay on hGBM SCCs and FCCs, the “apoptotic cell death (cleaved caspase 3) in SCCs” value is “significant increase in apoptotic cell death”. The “GBM cell survival, combination with glucose deprivation” value in the assay on hGBM cells was “greatest inhibitory effect on GBM cell survival”.
Take `O=C(O)C1[C@H](c2ccccc2)C(C(=O)Oc2cccc3ccccc23)[C@H]1c1ccccc1` (stereo partly shown) [SB-FI-26]: the “uptake of fluorescently labeled fatty acid C16-BODIPY” value at FABP7 was “significantly decreased”. In addition, the “tumor cell invasion in vivo” value in assay [1] is given as “decreased of cell invasion”. In assay [2], the “average (main) effect HR” value came to 0.38 and the “mortality hazard ratio (HR) versus control group” value was 0.43. Besides, the FCC growth entry in the assay with L1 SCCs and FCCs (L1 FCCs, decreased glucose plus 200 nM FABP7 inhibitor) is recorded as “did not result in any additional growth inhibitory effect on FCCs”. Further, the SCC survival/proliferation entry in the assay on L1 SCCs and FCCs (L1 SCCs, lower glucose plus 200 nM FABP7 inhibitor) was “significantly inhibited”. The cell migration entry in assay [3] (FACS-sorted SCCs, all cell lines tested) was “significant decrease of cell migration”. In addition, the cell migration entry in assay [3] (unsorted total GBM populations, all three lines, 1 and 10 μM) is reported as “significantly reduced overall cell migration”.
Regarding `CCc1c(-c2ccccc2)c(-c2ccccc2)nn1-c1ccccc1-c1cccc(OCC(=O)O)c1` [FABP3 inhibitor], the “uptake of fluorescently labeled fatty acid C16-BODIPY” value on FABP3 was “significantly decreased”.
Turning to `O=CC[C@@H](O)[C@H](O)[C@H](O)CO` [2-DG, 2-deoxyglucose], in the assay with hGBM SCCs and FCCs (0, 5 or 20 mM for 24 hours), the “cell death, sensitivity of SCCs versus FCCs to glycolysis inhibition” value was “SCCs are less sensitive to this pharmacological inhibition than FCCs”. Moreover, in [2], the “average (main) effect HR” value came to 0.74 and the “mortality hazard ratio (HR) versus control group” value was found to be 0.84.
`C=C(C)[C@H]1Cc2c(ccc3c2O[C@@H]2COc4cc(OC)c(OC)cc4[C@@H]2C3=O)O1` [rotenone]: the “apoptotic cell death (cleaved caspase 3) in SCCs” value with hGBM SCCs and FCCs is given as “significant increase in apoptotic cell death”. Also, the survival result in assay [4] (FCC-implanted animals, 0.5 mg/kg i.p. once a week) is listed as “did not gain any survival benefit”; in [4] (SCC-implanted animals, 0.5 mg/kg i.p. once a week, versus vehicle), “significant increase in survival”; in assay [4] (animals implanted with total unsorted population), “improved survival”. Also, the “GBM cell survival, combination with glucose deprivation” value with hGBM cells was “greatest inhibitory effect on GBM cell survival”.
